Data as given in PMC10035370, “Targeting Tumor Angiogenesis with the Selective VEGFR-3 Inhibitor EVT801 in Combination with Cancer Immunotherapy” (Cancer Research Communications, 2022).
pIC50: −log10 of the molar value.

Experiments:
[1] = Blood pressure in telemetered rat model of hypertension; format: in vivo; settings: dose as high as 500 mg/kg, single oral administration
Experimental: Supplementary Figure 8. EVT801 and sorafenib show opposing effects on blood pressure in rats. (A) Monitoring of the blood pressure over 24 h after single oral administration of 100 mg/kg EVT801 or 500 mg/kg of EVT801, compared to animals treated with vehicle. (B) Monitoring of the blood pressure over 24 h after single oral administration of 10 mg/kg sorafenib, 30 mg/kg sorafenib or 100 mg/kg of sorafenib, compared to animals treated with vehicle.

VEGFR-1 = biological target: T1, VEGFR-1 (Homo sapiens, UniProt P17948); experiment: Biochemical kinase assay (in vitro assay), VEGFR-1; settings: read-out: IC50 in biochemical assays, VEGFR-1
T1 construct: The VEGFR-1 tyrosine kinase domain was obtained from Upstake; purchased Upstake (so in the source)
T1 sequence (P17948 827-1158 limits assumed): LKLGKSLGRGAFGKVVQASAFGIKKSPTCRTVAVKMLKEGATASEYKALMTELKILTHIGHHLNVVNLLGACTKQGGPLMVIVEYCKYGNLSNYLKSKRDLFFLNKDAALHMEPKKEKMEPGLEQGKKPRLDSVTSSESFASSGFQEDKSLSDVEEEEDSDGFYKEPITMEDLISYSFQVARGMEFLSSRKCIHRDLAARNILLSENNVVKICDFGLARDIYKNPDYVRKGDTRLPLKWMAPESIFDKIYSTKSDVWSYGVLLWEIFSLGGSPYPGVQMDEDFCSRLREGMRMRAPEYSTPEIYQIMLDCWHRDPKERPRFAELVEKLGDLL
Experimental: (§1) Sigma protein kinase assay kits were used. 125 μL per well of Poly-Glu-Tyr (PGT) solution (250 μg/mL of PGT in PBS without Ca^2+, Mg^2+ and sodium bicarbonate) was added in a 96-well plate and overnight incubation was performed at 37 °C. The day after, coating solution was removed and wells were washed with 300 μL of PBS-Tween-20 0.05 %. The washing buffer was removed and wells were dried for 2 h at 37 °C. 90 μL of the kinase buffer was supplemented with ATP (30 μM for VEGFR-1 and VEGFR-3, and 15 μM for VEGFR-2), and the compound (EVT801 or SAR401849 at the indicated concentration or 1 % DMSO for the vehicle control). The phosphorylation reaction was initiated by the addition of 20 μL of kinase buffer without ATP supplemented with 100 ng of the tyrosine kinase (or without tyrosine kinase as control). Plates were incubated with gentle agitation at room temperature for 30 min. After 3 washes with 300 μL of washing buffer, 100 μL of phosphotyrosine specific monoclonal antibody conjugated to HRP (1:30,000) was added onto the phosphorylated PGT. Plates were incubated for 30 min at room temperature under gentle agitation. Then, 3 washes with 300 μL of washing buffer were performed. […] After 7 min at room temperature, the reaction was stopped by addition of 100 μL of […], and absorbance was determined with an Endvision spectrophotometer at 492 nm.

VEGFR-2 = VEGFR-2 (Homo sapiens, UniProt P35968); experiment: Biochemical kinase assay (in vitro assay), VEGFR-2; design: expressed in transfected cells; host or cells: HEK293T; settings: read-out: IC50 in biochemical assays, VEGFR-2
Chain of VEGFR-2 (P35968 20-1356): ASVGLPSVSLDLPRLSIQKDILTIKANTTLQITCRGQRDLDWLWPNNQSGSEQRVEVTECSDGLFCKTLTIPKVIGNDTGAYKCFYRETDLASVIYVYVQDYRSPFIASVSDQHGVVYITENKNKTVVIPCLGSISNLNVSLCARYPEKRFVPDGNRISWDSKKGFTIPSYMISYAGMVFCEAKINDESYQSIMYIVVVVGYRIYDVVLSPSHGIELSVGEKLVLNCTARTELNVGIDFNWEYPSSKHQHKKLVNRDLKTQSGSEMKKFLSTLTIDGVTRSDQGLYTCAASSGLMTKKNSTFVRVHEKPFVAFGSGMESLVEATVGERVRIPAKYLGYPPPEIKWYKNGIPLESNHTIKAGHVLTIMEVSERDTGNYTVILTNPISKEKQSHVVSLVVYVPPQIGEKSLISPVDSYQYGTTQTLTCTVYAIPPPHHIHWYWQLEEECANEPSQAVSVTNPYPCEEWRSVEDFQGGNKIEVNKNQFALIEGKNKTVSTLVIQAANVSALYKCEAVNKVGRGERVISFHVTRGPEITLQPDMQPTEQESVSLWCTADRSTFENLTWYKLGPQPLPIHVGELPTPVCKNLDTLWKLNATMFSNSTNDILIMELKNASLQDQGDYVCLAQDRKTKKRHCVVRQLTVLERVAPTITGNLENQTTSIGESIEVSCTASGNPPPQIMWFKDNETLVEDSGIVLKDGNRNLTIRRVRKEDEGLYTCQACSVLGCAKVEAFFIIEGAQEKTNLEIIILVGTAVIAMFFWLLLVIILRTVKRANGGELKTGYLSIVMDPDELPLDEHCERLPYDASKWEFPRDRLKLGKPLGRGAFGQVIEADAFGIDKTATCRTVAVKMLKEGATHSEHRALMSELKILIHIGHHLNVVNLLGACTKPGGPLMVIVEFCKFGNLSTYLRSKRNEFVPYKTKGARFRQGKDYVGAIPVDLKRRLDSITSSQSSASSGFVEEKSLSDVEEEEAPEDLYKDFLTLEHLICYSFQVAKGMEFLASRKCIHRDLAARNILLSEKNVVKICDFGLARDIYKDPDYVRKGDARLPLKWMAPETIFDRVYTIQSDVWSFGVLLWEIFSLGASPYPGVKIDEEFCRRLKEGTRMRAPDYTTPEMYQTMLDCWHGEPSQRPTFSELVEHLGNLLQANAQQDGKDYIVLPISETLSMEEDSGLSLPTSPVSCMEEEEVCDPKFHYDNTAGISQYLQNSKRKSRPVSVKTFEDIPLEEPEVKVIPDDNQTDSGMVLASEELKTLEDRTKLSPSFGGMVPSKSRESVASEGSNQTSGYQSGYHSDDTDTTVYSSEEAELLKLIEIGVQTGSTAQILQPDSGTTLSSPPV
Experimental: as §1

[2] = test system: NCI-H1703 tumor xenografts; experiment: NCI-H1703 subcutaneous xenograft tumor mouse model; format: in vivo, mice; settings: 30 mg/kg twice per day
Experimental: A total number of 40 homozygous NOD.CB17 Prkdc^scid/NCrHsd mice were used for the xenograft tumor model. On the day of implantation, NCI-H1703 cells were harvested and suspended at a concentration of 1 × 10^8 cells per mL in an equal mix of Cultrex:RPMI without supplements. A volume of 100 μL was injected into the right hind flank of each animal. Tumor volumes were monitored until mean tumor volume reached 150 mm^3. Then, mice were stratified into four treatment groups of each 10 mice and orally dosed twice per day with either EVT801 30 mg/kg and EVT801 vehicle [Soluplus (BASF)/water/hydroxypropylcellulose SL (Nisso America)], or 30 mk/kg pazopanib and pazopanib vehicle (0.5% Hydroxypropyl methylcellulose trimellitate (HPMCT) + 0.1% Tween-80). A period of 8 hours was observed between the first and second daily dose.

Which results are given for `CCn1c(N)c(-c2ncc[nH]2)c(=O)c2ccc(C#C[C@@](C)(O)COC)nc21` [EVT801]?
effect on blood pressure [1]: did not increase blood pressure; pIC50 (VEGFR-1): 6.40; pIC50 (VEGFR-2): 6.89; CD31 IHC, tumor vessels [2]: decreased the number of vessels while increasing the proportion of larger ones; decrease of tumor weight compared with vehicle ([2]; endpoint): 82%; T/C ratio, tumor growth ([2]; oral, vs corresponding vehicle): 24%
